According to PubChem BioAssay (NCI):
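Cells were grown in 96-well plates and exposed to each compound for 48 hours at five concentrations; endpoints were interpolated linearly between bracketing concentrations, or set to the highest concentration if not reached. TGI denotes the concentration required for complete inhibition of growth.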

How the values were obtained:
Test in all cases: DTP human tumour cell line panel, 48 h
[1] = system: A549 NSCLC
[2] = system: CAKI-1 renal
[3] = system: DU-145 prostate
[4] = system: EKVX NSCLC
[5] = system: IGROV1 ovarian
[6] = system: K-562 leukemia
[7] = system: KM12 colon
[8] = system: NCI-H460 lung
[9] = system: OVCAR-3 ovarian
[10] = system: OVCAR-8 ovarian
[11] = system: RXF 393 renal
[12] = system: SK-MEL-2 melanoma
[13] = system: SK-MEL-28 melanoma
[14] = system: SN12C renal
[15] = system: SNB-75 CNS
[16] = system: SW-620 colon
[17] = system: UACC-62 melanoma
[18] = system: UO-31 renal
[19] = system: HOP-62 NSCLC

Compound	TGI [1] [µM]	TGI [2] [µM]	TGI [3] [µM]	TGI [4] [µM]	TGI [5] [µM]	TGI [6] [µM]	TGI [7] [µM]	TGI [8] [µM]	TGI [9] [µM]	TGI [10] [µM]	TGI [11] [µM]	TGI [12] [µM]	TGI [13] [µM]	TGI [14] [µM]	TGI [15] [µM]	TGI [16] [µM]	TGI [17] [µM]	TGI [18] [µM]	TGI [19] [µM]
Cc1c(C)c2c(c(N)c1C#N)C(=O)N(CCc1ccccc1)C2=O	> 100	> 100	> 100	> 100	> 100	> 100	> 100	> 100	> 100	> 100	> 100	> 100	> 100	> 100	> 100	> 100	> 100	> 100	–
C/C1=C/C(C)CC(C)OC(=O)C(C)NC(=O)C(Cc2ccc(O)c(I)c2)N(C)C(=O)CNC(=O)C(C)C1 (centres undefined)	> 100	< 0.01	> 100	> 21.9	0.0236	–	> 100	> 59.7	< 0.01	> 100	< 0.01	10.2	–	> 100	< 0.0141	> 100	> 20.9	0.035	< 0.01
O=C(N/N=C/c1ccc2c(c1)OCO2)Nc1ccccc1Cl	> 100	> 100	> 20.3	> 60.5	> 35.3	> 100	> 100	16.6	2.82	> 43.1	12.2	25.2	> 100	> 46.7	2.38	> 100	> 83.1	> 100	> 100
CCOC(=O)C(C(=O)OCC)=C1NC2(c3ccccc3Nc3ccc(C)cc32)C(C#N)S1 (centres undefined)	21.8	72	43.8	39.5	27.2	25.8	41.3	12.7	8.44	35	27.8	22.1	70.9	8.68	64.3	30.3	26.8	17.8	33.7
CC[C@](O)(CC(=O)O[C@H]1C(=O)O[C@@H]2C[C@H]3C(C)=CC(=O)[C@@H](O)[C@]3(C)[C@H]3[C@@]4(O)OC[C@]32[C@@H]1[C@@H](C)[C@H]4O)C(C)C	–	0.0398	< 0.01	< 0.01	< 0.01	< 0.01	< 0.01	< 0.01	< 0.01	< 0.01	< 0.01	< 0.01	< 0.01	< 0.01	< 0.01	< 0.01	< 0.01	0.0447	< 0.01
Nc1nc(Cl)c(N)c(NCC2(CO)CCC2)n1	> 100	> 100	> 100	> 100	> 100	> 100	> 100	> 100	> 100	> 100	> 100	> 100	> 100	> 100	> 100	> 100	> 100	> 100	> 100
COC(=O)C(Cc1c[nH]c2ccccc12)N=C1Nc2ccncc2S(=O)(=O)N1c1ccccc1 (centres undefined)	> 100	> 100	> 100	> 100	98.7	51.8	> 100	> 100	99.5	> 100	56.8	68.5	> 100	> 100	75	99.3	58.2	> 100	> 100
c1ccc2c(C3CCN(CCN4CCOCC4)C3)c[nH]c2c1 (centres undefined)	> 100	> 100	> 100	> 100	> 100	> 100	> 100	> 100	> 100	> 100	> 100	> 100	> 100	> 100	> 100	> 100	> 100	> 100	> 100
COc1ccc(/C=C2\CCC(CNc3cc(C)on3)C2=O)cc1 (centres undefined)	> 100	> 100	> 100	> 100	> 100	> 100	> 100	> 100	> 100	> 100	> 21.5	> 100	> 100	> 100	> 76.4	> 100	> 100	> 100	> 100
CCN(CC)C1Oc2cc3c(cc2C(c2ccc(OC)cc2)C1C)OCO3 (centres undefined)	74	76.4	76.4	49.9	86.9	45.9	53.2	37.2	37.1	44.9	40.6	38.6	50.8	63	59.7	> 100	42.1	64.9	54.9
O=c1[nH]c(C23CC4CC(CC(C4)C2)C3)cc2c1c(=O)oc1ccccc12	9.71	7.03	22	3.99	13	> 35.8	> 96	11.6	17.5	15	7.71	38.7	20.6	38.5	9.52	> 51.8	> 49.8	4.23	9.56
CCOC(=O)C(SCCO)C(C(=O)OCC)n1cnc2c(N)ncnc21 (centres undefined)	> 100	15.1	> 100	38.1	36.5	14.6	35.2	18	25.4	31.2	29.6	24.4	34.3	25.6	24.7	12.5	24.7	55.1	45.4
N=c1oc2ccc([N+](=O)[O-])cc2cc1C(=O)NCc1ccccc1	> 100	36.2	> 100	> 100	30.9	> 100	36.7	> 100	–	33.2	28	39.1	35.8	36.9	29.5	39.5	42.9	35.8	> 100
COc1nc(C)nc2sc3c(c12)CCCC3	–	> 100	> 100	> 100	> 100	> 100	> 100	> 100	> 100	> 100	> 100	> 100	> 100	> 100	> 100	> 100	> 100	> 100	> 100
COc1cccc(OC/C(N=Cc2cccnc2)=N/NC(=O)c2ccncc2)c1	> 100	> 100	> 100	> 100	> 100	> 100	> 100	> 100	> 100	> 100	> 100	> 100	> 100	–	> 100	> 100	> 100	–	> 100
CO[C@H]1c2cccc3cccc(c23)[C@@H]1n1[nH]c(=O)n(C(C)(C)C)c1=O	> 100	> 100	> 100	> 100	> 100	> 100	> 100	> 100	> 100	> 100	> 100	> 100	> 100	> 100	> 100	> 100	> 100	> 100	–
O=C(c1cc(Cl)cc(Cl)c1)N(C(=O)N1CCN(c2ccccc2)CC1)c1ccccc1	> 100	> 100	> 100	> 100	–	> 100	> 100	> 100	> 100	> 100	> 100	> 100	> 100	> 100	> 100	> 100	> 100	> 100	> 100
ClC1(Cl)C(c2ccccc2)C1c1ccccc1 (centres undefined)	> 100	75.9	> 100	53.1	–	> 100	> 100	51.2	87.8	77.4	37.8	40.2	> 100	> 100	> 100	> 100	> 100	> 100	> 100
N#C/C(=C\c1cn(Cc2ccccc2)c2ccccc12)c1nn(-c2ccccc2)c(N)c1C#N	24.6	47	32.2	27.5	30.7	> 100	> 100	25.9	33.7	21.9	19.2	16.9	> 100	38.7	15.3	36.3	23.6	26.5	–
